{
  "source": "patent US7488754B2",
  "about": "“Method for the treatment of polycystic kidney disease” (Wyeth, priority 2002, dated 2009)",
  "key": {"cystic bpk mice [1]": {"system": "cystic bpk mice", "test": "Treatment of cystic bpk mice (bpk model of ARPKD)", "type": "in vivo", "details": "B 50 mg/kg/day once daily IP day 7 to 21"}, "TACE": {"biological_target": "TACE (Homo sapiens, UniProt P78536)", "sequence (P78536 215-824)": "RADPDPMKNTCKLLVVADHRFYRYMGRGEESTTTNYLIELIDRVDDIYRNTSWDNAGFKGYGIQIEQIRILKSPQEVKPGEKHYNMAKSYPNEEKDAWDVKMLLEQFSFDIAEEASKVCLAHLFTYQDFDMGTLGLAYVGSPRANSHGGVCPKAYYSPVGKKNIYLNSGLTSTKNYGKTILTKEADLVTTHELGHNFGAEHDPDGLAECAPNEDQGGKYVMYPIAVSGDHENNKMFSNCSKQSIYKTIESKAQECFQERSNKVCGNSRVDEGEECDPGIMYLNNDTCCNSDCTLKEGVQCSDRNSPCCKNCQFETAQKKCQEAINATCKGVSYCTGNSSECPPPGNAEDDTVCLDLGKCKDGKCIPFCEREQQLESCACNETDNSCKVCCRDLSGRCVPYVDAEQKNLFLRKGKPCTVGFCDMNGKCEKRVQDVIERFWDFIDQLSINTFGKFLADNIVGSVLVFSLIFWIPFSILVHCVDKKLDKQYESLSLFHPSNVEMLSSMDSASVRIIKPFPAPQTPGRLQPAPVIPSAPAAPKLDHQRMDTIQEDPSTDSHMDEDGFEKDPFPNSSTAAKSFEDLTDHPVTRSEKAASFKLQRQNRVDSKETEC", "test": "TACE activity (IC 50)", "type": "biochemical"}, "MMP-1": {"biological_target": "T1, MMP-1 (Homo sapiens, UniProt P03956)", "T1 sequence (P03956 100-469)": "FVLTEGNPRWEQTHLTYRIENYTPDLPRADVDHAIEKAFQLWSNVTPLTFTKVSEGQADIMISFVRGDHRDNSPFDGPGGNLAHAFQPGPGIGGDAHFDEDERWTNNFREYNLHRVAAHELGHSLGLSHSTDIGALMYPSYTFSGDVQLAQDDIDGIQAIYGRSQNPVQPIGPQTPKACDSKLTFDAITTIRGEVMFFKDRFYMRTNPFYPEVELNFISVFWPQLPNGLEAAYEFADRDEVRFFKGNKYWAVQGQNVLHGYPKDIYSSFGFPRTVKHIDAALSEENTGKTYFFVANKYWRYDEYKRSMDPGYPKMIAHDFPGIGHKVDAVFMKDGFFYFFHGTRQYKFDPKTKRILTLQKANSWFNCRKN", "test": "MMP activity (IC 50), MMP-1", "type": "biochemical"}, "MMP-13": {"biological_target": "MMP-13 (Homo sapiens, UniProt P45452)", "test": "MMP activity (IC 50), MMP-13", "type": "biochemical"}, "noncystic littermates": {"system": "noncystic littermates", "test": "Treatment of noncystic (phenotypically normal) littermates of bpk mice", "type": "in vivo", "details": "P-21 noncystic mice", "method": "(§1) Cystic bpk mice and phenotypically normal littermates were injected with a dose of 100 mg/kg/dose of 1-acetyl-4-(4-but-2-ynyloxy-benzenesulfonyl)-2,3,4,5-tetrahydro-1 h-[1,4]benzodiazepine-3-carboxylic acid hydroxyamide given intraperitoneally once daily, in a vehicle containing 0.5% methocellulose (Fluka Biochemica, Ronkonkoma, N.Y.) and 2% Tween 80 (J T Baker, Phillipsburg, N.J.), beginning at postnatal day 7. Age-matched untreated cystic bpk mice and their noncystic littermates served as controls. At day 21, mice were sacrificed. Blood was obtained by orbital puncture prior to sacrifice. Kidney weight and body weight for treated and untreated cystic and noncystic mice were measured at sacrifice. Blood urea nitrogen (BUN) was assessed using a calorimetric assay. Serum creatinine was assessed using standard techniques in the hospital laboratory. Differences in clinical and laboratory parameters between treated and untreated cystic and noncystic mice were analyzed by two-tailed Student's t-test."}, "cystic bpk mice [2]": {"system": "cystic bpk mice", "test": "Treatment of cystic bpk mice (bpk model of ARPKD)", "type": "in vivo", "description": "This model arose from a spontaneous mutation in a colony of BALB/C mice. Affected animals have many similarities to the human disease including collecting tubule (CT) cysts and biliary ectasia and fibrosis. The kidney disease has a consistent and severe phenotype. Mice homozygous for the bpk mutation have microscopic evidence of cyst formation at birth. Proximal tubule (PT) cysts are present at birth, which are gradually replaced by CT cysts as the disease progresses. Cyst expansion and kidney fibrosis result in death due to renal failure at 24-28 days. Heterozygotes show no phenotypic abnormalities and are identified by their ability to breed affected offspring. Unaffected (noncystic) littermates of cystic bpk mice are either wild-type or heterozygous at the bpk locus.\nas §1\nKidneys were fixed in 4% paraformaldehyde and embedded in plastic. Segment-specific localization of cysts was assessed using lectins specific to proximal tubule (Lotus tetragonolobus, LTA), and collecting tubule (Dolichos biflorus agglutinin, DBA). Serial LTA and DBA stained sections were examined by light microscopy and assessed for severity of cystic dilatations in PTs and CTs, expressed on a scale of 0 to 5 using a modified cystic index: • 0=No cysts • 1=≦0.11 mm • 2=0.12-0.19 mm • 3=0.20-0.27 mm • 4=0.28-0.35 mm • 5=≧0.36 mm The total number of CT (DBA+/LTA−) cysts and PT (LTA+/DBA−) cysts within a section were counted and expressed as a ratio.\nMice were treated from day 7 of life until day 21, then sacrificed. […] The results are listed below in Tables 1, 2, and 3."}, "MMP-9": {"biological_target": "MMP-9 (Homo sapiens, UniProt P14780)", "sequence (P14780 94-707)": "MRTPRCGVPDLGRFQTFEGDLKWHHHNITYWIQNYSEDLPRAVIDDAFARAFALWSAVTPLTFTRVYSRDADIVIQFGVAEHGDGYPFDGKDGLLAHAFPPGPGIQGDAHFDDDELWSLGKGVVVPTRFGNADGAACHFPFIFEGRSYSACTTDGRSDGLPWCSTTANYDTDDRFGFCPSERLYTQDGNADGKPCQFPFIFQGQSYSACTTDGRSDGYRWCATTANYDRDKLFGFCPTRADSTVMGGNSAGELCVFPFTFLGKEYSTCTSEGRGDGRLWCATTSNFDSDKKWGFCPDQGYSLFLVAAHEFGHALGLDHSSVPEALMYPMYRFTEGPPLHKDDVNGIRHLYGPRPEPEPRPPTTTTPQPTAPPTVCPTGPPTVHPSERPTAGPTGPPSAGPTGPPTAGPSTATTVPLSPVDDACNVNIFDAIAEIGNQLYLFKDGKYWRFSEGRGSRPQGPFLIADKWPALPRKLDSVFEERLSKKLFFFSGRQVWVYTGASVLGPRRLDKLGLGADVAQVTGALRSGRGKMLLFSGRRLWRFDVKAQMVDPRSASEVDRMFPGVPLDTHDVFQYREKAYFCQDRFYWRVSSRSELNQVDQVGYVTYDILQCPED", "test": "MMP activity (IC 50), MMP-9", "type": "biochemical"}, "[3]": {"details": "100 mg/kg/dose intraperitoneally once daily from postnatal day 7, sacrifice day 21"}, "[4]": {"details": "P-21 cystic bpk mice, 100 mg/kg/dose intraperitoneally once daily from postnatal day 7, sacrifice day 21"}},
  "note": "Marks after values point to notes of the source that are not given here.",
  "data": [
    {"smiles": "O=C(NO)C1(S(=O)(=O)c2ccc(Oc3ccc(Cl)cc3)cc2)CCN(Cc2ccccc2)CC1", "note": "[B, 1-Benzyl-4-[4-(4-chloro-phenoxy)-benzenesulfonyl]-piperidine-4-carboxylic acid hydroxamide]", "values": [
      {"measurement": "Cystic Kidney Weight to Body Weight", "setting": "cystic bpk mice [1]", "result": "15.3 +/− 1.7%"}
    ]},
    {"smiles": "CC#CCOc1ccc(S(=O)(=O)N2Cc3ccccc3N(C(C)=O)CC2C(=O)NO)cc1", "note": "(stereo not drawn) [A, 1-Acetyl-4-(4-But-2-ynyloxy-Benzenesulfonyl)-2,3,4,5-Tetrahydro-1H-[1,4]Benzodiazepine-3-Carboxylic Acid Hydroxyamide]", "values": [
      {"measurement": "IC50", "setting": "TACE", "result": 8.4, "unit": "nM"},
      {"measurement": "IC50", "setting": "MMP-1", "result": 6.6, "unit": "nM"},
      {"measurement": "IC50", "setting": "MMP-13", "result": 3, "unit": "nM"},
      {"measurement": "BUN", "setting": "noncystic littermates; 100 mg/kg/dose intraperitoneally once daily from postnatal day 7, blood at day 21", "result": "17 +/− 4^d mg/dl"},
      {"measurement": "Body Weight", "setting": "noncystic littermates; [3]", "result": "8.5 +/− 1.0 grams"},
      {"measurement": "Kidney Weight", "setting": "noncystic littermates; [3]", "result": "0.13 +/− 0.01 grams"},
      {"measurement": "Kidney Weight to Body Weight", "setting": "noncystic littermates; [3]", "result": "1.5 +/− 0.1%"},
      {"measurement": "Creatinine", "setting": "noncystic littermates; serum, 100 mg/kg/dose intraperitoneally once daily from postnatal day 7, blood at day 21", "result": "0.15 +/− 0.05^e mg/dl"},
      {"measurement": "BUN", "setting": "cystic bpk mice [2]; P-21 cystic bpk mice, 100 mg/kg/dose intraperitoneally once daily from postnatal day 7, blood at day 21", "result": "33 +/− 4^b** mg/dl"},
      {"measurement": "Body Weight", "setting": "cystic bpk mice [2]; [4]", "result": "8.2 +/− 1.3 grams"},
      {"measurement": "Kidney Weight", "setting": "cystic bpk mice [2]; [4]", "result": "0.93 +/− 0.2** grams"},
      {"measurement": "Kidney Weight to Body Weight", "setting": "cystic bpk mice [2]; [4]", "result": "11.2 +/− 1.3** percent"},
      {"measurement": "CT Cystic Index (graded 1–5)", "setting": "cystic bpk mice [2]; collecting tubule cysts, DBA stained kidney sections, cystic mice, 100 mg/kg/dose IP once daily day 7 to 21", "result": "3.2 +/− 0.4**"},
      {"measurement": "CT Cyst Size Range", "setting": "cystic bpk mice [2]; collecting tubule cysts, cystic mice, 100 mg/kg/dose IP once daily day 7 to 21", "result": "0.012–0.29 mm"},
      {"measurement": "Cystic Kidney Weight to Body Weight", "setting": "cystic bpk mice [2]; cystic bpk mice, A 100 mg/kg/dose IP once daily day 7 to 21", "result": "11.2 +/− 1.3%"},
      {"measurement": "PT Cystic Index (graded 1–5)", "setting": "cystic bpk mice [2]; proximal tubule cysts, LTA stained kidney sections, cystic mice, 100 mg/kg/dose IP once daily day 7 to 21", "result": "1.8 +/− 0.4"},
      {"measurement": "PT Cyst Size Range", "setting": "cystic bpk mice [2]; proximal tubule cysts, cystic mice, 100 mg/kg/dose IP once daily day 7 to 21", "result": "0.012–0.17 mm"},
      {"measurement": "Creatinine", "setting": "cystic bpk mice [2]; serum, P-21 cystic bpk mice, 100 mg/kg/dose intraperitoneally once daily from postnatal day 7, blood at day 21", "result": "0.18 +/− 0.05^b mg/dl"},
      {"measurement": "Cystic CT/PT Ratio", "setting": "cystic bpk mice [2]; total number of CT cysts to PT cysts within a section, cystic mice, 100 mg/kg/dose IP once daily day 7 to 21", "result": "1.2**"},
      {"measurement": "IC50", "setting": "MMP-9", "result": 12, "unit": "nM"}
    ]}
  ]
}
